Laboratory results as given in ChEMBL document CHEMBL3044957, “Synthesis and biological evaluation of some N 4-aryl-substituted 5-fluoroisatin-3-thiosemicarbazones” (Med Chem Res, 2013).
Activity calls are given as the source filed them. The calls are words filed in the database; no cut-off is given here.

Key:
Lemna aequinoctialis [1] = assay: Phytotoxicity against Lemna aequinoctialis assessed as growth inhibition at 50 ug/ml after 7 days relative to control; type: functional; conditions: 168 h, read-out: GI
Fusarium solani = assay: Growth inhibition of Fusarium solani at 200 ug/ml after 7 days; type: functional; conditions: 168 h
Microsporum canis = assay: Growth inhibition of Arthroderma otae at 200 ug/ml after 7 days; type: functional; conditions: 168 h
Lemna aequinoctialis [2] = assay: Phytotoxicity against Lemna aequinoctialis assessed as growth inhibition at 5 ug/ml after 7 days relative to control; type: functional; conditions: 168 h, read-out: GI
Nakaseomyces glabratus = assay: Growth inhibition of Candida glabrata at 200 ug/ml after 7 days; type: functional; conditions: 168 h
[3] = molecular target: Urease (Canavalia ensiformis) (UniProt P07374); assay: Inhibition of Canavalia ensiformis (jack bean) urease assessed as inhibition of ammonia production at 200 uM after 15 min by indophenol method
[4] = Toxicity against Artemia salina (brine shrimp) assessed as mortality after 24 hr; type: organism-based; conditions: in vivo, read-out: LD50
Urease = Urease (Canavalia ensiformis, UniProt P07374); assay: Inhibition of Canavalia ensiformis (jack bean) urease assessed as inhibition of ammonia production after 15 min by indophenol method
Trichophyton longifusum = assay: Growth inhibition of Trichophyton longifusum at 200 ug/ml after 7 days; type: functional; conditions: 168 h
Lemna aequinoctialis [5] = assay: Phytotoxicity against Lemna aequinoctialis assessed as growth inhibition at 500 ug/ml after 7 days relative to control; type: functional; conditions: 168 h, read-out: GI
Aspergillus flavus = assay: Growth inhibition of Aspergillus flavus at 200 ug/ml after 7 days; type: functional; conditions: 168 h
Candida albicans = assay: Growth inhibition of Candida albicans at 200 ug/ml after 7 days; type: functional; conditions: 168 h
[6] = molecular target: Urease (Canavalia ensiformis) (UniProt P07374); assay: Inhibition of Canavalia ensiformis (jack bean) urease assessed as inhibition of ammonia production at 500 uM after 15 min by indophenol method
Lemna aequinoctialis [7] = assay: Phytotoxicity against Lemna aequinoctialis assessed as growth inhibition at 0.015 g/ml after 7 days relative to control; type: functional
[8] = molecular target: Urease (Canavalia ensiformis) (UniProt P07374); assay: Inhibition of Canavalia ensiformis (jack bean) urease assessed as inhibition of ammonia production at 100 uM after 15 min by indophenol method
Homo sapiens = species: Homo sapiens; assay: Inhibition of […] urease-mediated ammonia production at 100 uM after 15 min by indophenol method

Urease (Canavalia ensiformis), sequence (P07374 whole entry, looked up): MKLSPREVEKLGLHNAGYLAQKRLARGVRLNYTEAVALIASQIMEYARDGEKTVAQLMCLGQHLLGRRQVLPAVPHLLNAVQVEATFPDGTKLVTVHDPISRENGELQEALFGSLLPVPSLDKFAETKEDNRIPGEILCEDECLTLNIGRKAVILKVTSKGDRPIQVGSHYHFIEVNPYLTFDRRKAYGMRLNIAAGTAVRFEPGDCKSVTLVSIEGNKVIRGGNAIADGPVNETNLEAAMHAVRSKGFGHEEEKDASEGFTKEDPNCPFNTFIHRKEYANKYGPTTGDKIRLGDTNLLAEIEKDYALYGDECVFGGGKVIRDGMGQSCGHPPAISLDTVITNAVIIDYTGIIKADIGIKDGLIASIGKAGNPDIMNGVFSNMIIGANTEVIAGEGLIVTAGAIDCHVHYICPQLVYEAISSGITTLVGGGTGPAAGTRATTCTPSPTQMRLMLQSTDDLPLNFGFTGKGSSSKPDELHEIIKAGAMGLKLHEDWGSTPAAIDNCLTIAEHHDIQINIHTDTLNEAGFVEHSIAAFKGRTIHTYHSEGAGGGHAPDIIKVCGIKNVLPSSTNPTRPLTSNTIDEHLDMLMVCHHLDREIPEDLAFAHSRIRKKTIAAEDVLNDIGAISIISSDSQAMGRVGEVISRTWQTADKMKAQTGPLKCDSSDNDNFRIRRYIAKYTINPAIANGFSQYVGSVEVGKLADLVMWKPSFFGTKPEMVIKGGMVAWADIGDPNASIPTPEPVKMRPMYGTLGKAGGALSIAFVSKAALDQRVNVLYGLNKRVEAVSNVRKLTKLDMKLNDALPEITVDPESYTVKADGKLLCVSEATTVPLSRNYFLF
Urease, sequence (P07374 whole entry): as the sequence (P07374 whole entry, looked up) above

Row | Structure (SMILES) | inhibition of growth at 50 µg/mL (Lemna aequinoctialis [1]) [%] | inhibition at 200 µg/mL (Fusarium solani) [%] | inhibition at 200 µg/mL (Microsporum canis) [%] | inhibition of growth at 5 µg/mL (Lemna aequinoctialis [2]) [%] | inhibition at 200 µg/mL (Nakaseomyces glabratus) [%] | inhibition [3] [%] | LC50 at 24 h [4] [µM] | IC50 (Urease; read-out: IC50) [µM] | inhibition at 200 µg/mL (Trichophyton longifusum) [%] | inhibition of growth at 500 µg/mL (Lemna aequinoctialis [5]) [%] | inhibition at 200 µg/mL (Aspergillus flavus) [%] | inhibition at 200 µg/mL (Candida albicans) [%] | inhibition [6] [%] | growth inhibition (GI) (Lemna aequinoctialis [7]) [%] | inhibition [8] [%] | IC50 (Urease) | inhibition (Homo sapiens)
1 | O=C1Nc2ccc(F)cc2/C1=N/NC(=S)Nc1cccc(F)c1 | 25 | 15 | 25 | 15 | 0 | 79.8 | 121 | 45.3 | 0 | 30 | 10 | 0 | – | – | – | – | –
2 | O=C1Nc2ccc(F)cc2/C1=N/NC(=S)Nc1ccccc1C(F)(F)F | 10 | 0 | 20 | 5 | 0 | 77.3 | > 52.4 | 50.5 | 0 | 25 | 15 | 0 | – | – | – | – | –
3 | NC(N)=S | – | – | – | – | – | – | – | – | – | – | – | – | 99 | – | – | – | –
4 | C[n+]1ccc(-c2cc[n+](C)cc2)cc1 | – | – | – | – | – | – | – | – | – | – | – | – | – | 100 | – | – | –
5 | O=C1Nc2ccccc2/C1=N/NC(=S)Nc1ccccc1F | – | – | – | – | – | – | – | 20.6 | – | – | – | – | – | – | 84.9 | – | –
6 | O=C1Nc2ccccc2/C1=N/NC(=S)Nc1ccc(C(F)(F)F)cc1 | – | – | – | – | – | – | – | 50.6 | – | – | – | – | – | – | 44.6 | – | –
7 | O=C1Nc2ccc(F)cc2/C1=N/NC(=S)Nc1ccc(C(F)(F)F)cc1 | 15 | 5 | 25 | 10 | 0 | 53.4 | 176 | 90.4 | 0 | 25 | 20 | 0 | – | – | – | – | –
8 | O=C1Nc2ccccc2/C1=N/NC(=S)Nc1cccc(F)c1 | – | – | – | – | – | – | – | 50.6 | – | – | – | – | – | – | 57.3 | – | –
9 | O=C1Nc2ccc(F)cc2/C1=N/NC(=S)Nc1ccc(F)cc1 | 25 | 10 | 15 | 10 | 0 | – | 97.9 | – | 0 | 35 | 0 | 0 | 45.6 | – | – | Not Active | –
10 | O=C1Nc2ccc(F)cc2/C1=N/NC(=S)Nc1ccccc1F | 25 | 20 | 30 | 20 | 0 | – | 279 | 37.7 | 0 | 35 | 0 | 0 | 94.6 | – | – | – | –
11 | O=C1Nc2ccc(F)cc2/C1=N/NC(=S)Nc1ccc(F)cc1F | 20 | 15 | 35 | 10 | 0 | – | > 57.1 | – | 0 | 30 | 40 | 0 | 22.1 | – | – | Not Active | –
12 | O=C1Nc2ccc(F)cc2/C1=N/NC(=S)Nc1cccc(C(F)(F)F)c1 | 10 | 25 | 30 | 0 | 0 | – | > 52.4 | 59.9 | 0 | 30 | 30 | 0 | 92.6 | – | – | – | –
13 | O=C1Nc2ccccc2/C1=N/NC(=S)Nc1ccc(OC(F)(F)F)cc1 | – | – | – | – | – | – | – | 20.6 | – | – | – | – | – | – | 49.6 | – | –
14 | O=C1Nc2ccccc2/C1=N/NC(=S)Nc1ccc(F)cc1F | – | – | – | – | – | – | – | 47.6 | – | – | – | – | – | – | 71.9 | – | –
15 | O=C1Nc2ccccc2/C1=N/NC(=S)Nc1ccccc1C(F)(F)F | – | – | – | – | – | – | – | 33.1 | – | – | – | – | – | – | 63.1 | – | –
16 | O=C1Nc2ccccc2/C1=N/NC(=S)Nc1cccc(C(F)(F)F)c1 | – | – | – | – | – | – | – | 20.6 | – | – | – | – | – | – | 78.2 | – | –
17 | O=C1Nc2ccc(F)cc2/C1=N/NC(=S)Nc1c(F)cccc1F | 10 | 0 | 40 | 0 | 0 | – | 115 | 47.3 | 0 | 30 | 40 | 0 | 72.5 | – | – | – | –
18 | O=C1Nc2ccccc2/C1=N/NC(=S)Nc1ccccc1 | 25 | – | – | 15 | – | – | > 338 | – | – | 40 | – | – | – | – | – | – | inactive
19 | O=C1Nc2ccc(F)cc2/C1=N/NC(=S)Nc1ccccc1 | 15 | 0 | 20 | 10 | 0 | – | 68.9 | 343 | 0 | 70 | 0 | 0 | 53 | – | – | – | –
20 | O=C1Nc2ccccc2/C1=N/NC(=S)Nc1cc(F)cc(F)c1 | – | – | – | – | – | – | – | – | – | – | – | – | – | – | 38.8 | – | –
21 | O=C1Nc2ccc(F)cc2/C1=N/NC(=S)Nc1cc(F)cc(F)c1 | 10 | 0 | 40 | 0 | 0 | – | 107 | 151 | 0 | 15 | 0 | 0 | 80.2 | – | – | – | –
22 | O=C1Nc2ccc(F)cc2/C1=N/NC(=S)Nc1ccc(Br)cc1F | 25 | 10 | 20 | 10 | 0 | 21.9 | > 49.1 | – | 0 | 30 | 0 | 0 | – | – | – | Not Active | –
23 | O=C1Nc2ccccc2/C1=N/NC(=S)Nc1c(F)cccc1F | – | – | – | – | – | – | – | 33.1 | – | – | – | – | – | – | 92 | – | –
24 | O=C1Nc2ccc(F)cc2/C1=N/NC(=S)Nc1ccc(OC(F)(F)F)cc1 | 20 | 0 | 30 | 10 | 0 | – | > 50.3 | – | 0 | 35 | 10 | 0 | 18.9 | – | – | Not Active | –
